Test results taken from PubChem BioAssay (NCI).
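Results reflect a 48-hour exposure of cells in 96-well plates to compound at five concentrations. GI50 = concentration required for 50% inhibition of growth. TGI is the concentration that stops growth completely.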 Where a SMILES comes first, the peptide text is derived from it. The star is where a group is joined. Boc = CC(C)(C)OC(=O)*; OSu = O=C1CCC(=O)N1O*

Tests used:
Experiment in all cases: NCI tumour cell line growth inhibition, 48 h
U251 CNS = test system: U251 CNS
HOP-62 NSCLC = test system: HOP-62 NSCLC
NCI-H522 lung = test system: NCI-H522 lung
SK-MEL-2 melanoma = test system: SK-MEL-2 melanoma
LXFL 529 NSCLC = test system: LXFL 529 NSCLC
XF 498 CNS = test system: XF 498 CNS
DLD-1 colon = test system: DLD-1 colon
KM20L2 colon = test system: KM20L2 colon
DMS 114 small cell lung = test system: DMS 114 small cell lung
DMS 273 small cell lung = test system: DMS 273 small cell lung
M19-MEL melanoma = test system: M19-MEL melanoma
SNB-78 CNS = test system: SNB-78 CNS

O=C1CC(O)c2c1csc2Br (configuration not stated)
TGI (U251 CNS): 41 µM
TGI (HOP-62 NSCLC): > 100 µM
TGI (NCI-H522 lung): 30.4 µM
TGI (SK-MEL-2 melanoma): > 100 µM

CC(C)(C)OC(=O)NC(Cc1ccc(O)cc1)C(=O)NC(CCCCN)C(=O)NC(Cc1ccc(O)cc1)C(=O)NC(CCCCN)C(=O)ON1C(=O)CCC1=O (configuration not stated) (Boc-YKYK-OSu; configuration not given here)
TGI (U251 CNS): > 100 µM
TGI (HOP-62 NSCLC): > 100 µM
TGI (SK-MEL-2 melanoma): > 100 µM

Clc1nc(Cl)nc(NC23CC4CC(CC(C4)C2)C3)n1
TGI (U251 CNS): 30.5 µM
TGI (HOP-62 NSCLC): 34.5 µM
TGI (NCI-H522 lung): 30.9 µM
TGI (SK-MEL-2 melanoma): > 41.8 µM

O=C1CC2C=CC(O)C(C1)C2 (configuration not stated)
TGI (U251 CNS): > 100 µM
TGI (HOP-62 NSCLC): > 100 µM
TGI (NCI-H522 lung): > 100 µM
TGI (SK-MEL-2 melanoma): > 100 µM

COc1ncc(C=C(C#N)C#N)c(OC)n1
TGI (U251 CNS): > 100 µM
TGI (HOP-62 NSCLC): > 100 µM
TGI (NCI-H522 lung): 45.4 µM
TGI (SK-MEL-2 melanoma): > 100 µM

O=C1CC(C(O)CO)CC(=O)N1 (configuration not stated)
TGI (U251 CNS): > 100 µM
TGI (HOP-62 NSCLC): > 100 µM
TGI (NCI-H522 lung): > 100 µM

C[C@]12OC[C@H](c3ccccc3)N1C(=O)C1[C@H]2CC12SCCS2 (some centres not stated)
TGI (U251 CNS): > 100 µM
TGI (HOP-62 NSCLC): > 100 µM
TGI (NCI-H522 lung): > 100 µM
TGI (SK-MEL-2 melanoma): > 100 µM

CC[C@@H]1CC[C@@H]2[C@H](CC[C@]3(C)[C@@H](O)CC[C@@H]23)[C@H]1C(=O)O
TGI (U251 CNS): > 100 µM
TGI (HOP-62 NSCLC): > 100 µM
TGI (NCI-H522 lung): > 100 µM
TGI (SK-MEL-2 melanoma): > 100 µM

CC(C)(C)OC(=O)NCCCCC(NC(=O)OCc1ccccc1)C(N)=O (configuration not stated)
TGI (U251 CNS): > 100 µM
TGI (HOP-62 NSCLC): > 100 µM
TGI (NCI-H522 lung): > 100 µM
TGI (SK-MEL-2 melanoma): > 100 µM

COC(=O)c1cc(CC(C)C)c2c(c1)[nH]c1ccccc12
TGI (LXFL 529 NSCLC): > 100 µM
TGI (U251 CNS): > 100 µM
TGI (XF 498 CNS): > 100 µM
TGI (DLD-1 colon): > 100 µM
TGI (NCI-H522 lung): > 100 µM
TGI (KM20L2 colon): > 100 µM
TGI (SK-MEL-2 melanoma): > 100 µM
TGI (DMS 114 small cell lung): > 100 µM
TGI (DMS 273 small cell lung): > 100 µM
TGI (M19-MEL melanoma): > 100 µM

Nc1nc(Cl)cc(NCC2(CO)CC(CCc3ccccc3)C2)n1 (configuration not stated)
TGI (U251 CNS): > 100 µM
TGI (HOP-62 NSCLC): > 100 µM
TGI (NCI-H522 lung): > 100 µM
TGI (SK-MEL-2 melanoma): > 100 µM

[N-]=[N+]=Nc1c(Cl)c(=O)n(-c2ccccc2)c2ccccc12
TGI (HOP-62 NSCLC): 58.6 µM
TGI (SK-MEL-2 melanoma): 53.2 µM

CC(=O)C(CN1CCCCC1)C(c1ccccc1)c1c(O)c2ccccc2oc1=O (configuration not stated)
TGI (U251 CNS): > 100 µM
TGI (HOP-62 NSCLC): > 100 µM
TGI (NCI-H522 lung): > 100 µM
TGI (SK-MEL-2 melanoma): > 100 µM

CC(C)(C)C(=O)C(CC(=O)c1ccccc1)C(=O)C(C)(C)C
TGI (U251 CNS): > 100 µM
TGI (HOP-62 NSCLC): > 100 µM
TGI (NCI-H522 lung): > 100 µM
TGI (SK-MEL-2 melanoma): > 100 µM

CCOC(=O)c1cc2c([N+](=O)[O-])c(NC(C)=O)ccc2s1
TGI (U251 CNS): > 100 µM
TGI (HOP-62 NSCLC): > 100 µM
TGI (NCI-H522 lung): > 100 µM
TGI (SK-MEL-2 melanoma): > 100 µM

Cc1cn(C2CC(N)C(CN)O2)c(=O)[nH]c1=O (configuration not stated)
TGI (U251 CNS): > 100 µM
TGI (HOP-62 NSCLC): > 100 µM
TGI (NCI-H522 lung): > 100 µM
TGI (SK-MEL-2 melanoma): > 100 µM

c1cc(-c2cnc(-c3ccc4c(c3)CCCO4)o2)ccn1
TGI (U251 CNS): 78.5 µM
TGI (HOP-62 NSCLC): 30.1 µM
TGI (NCI-H522 lung): 23.4 µM
TGI (SK-MEL-2 melanoma): 24.8 µM

Clc1cc(N/N=C(/c2ccccc2)c2ncccn2)ncn1
TGI (U251 CNS): > 100 µM
TGI (HOP-62 NSCLC): 59.3 µM
TGI (NCI-H522 lung): 5.51 µM
TGI (SK-MEL-2 melanoma): 82.6 µM

COc1cc(COC(=O)N[C@H](C(=O)O)C(C)(C)C)c([N+](=O)[O-])cc1OC
TGI (U251 CNS): > 100 µM
TGI (HOP-62 NSCLC): > 100 µM

Cc1ccc(S(=O)(=O)N2CCN3C(=O)c4ccccc4C32c2ccc(F)cc2)cc1 (configuration not stated)
TGI (U251 CNS): > 100 µM
TGI (HOP-62 NSCLC): > 100 µM
TGI (NCI-H522 lung): > 100 µM
TGI (SK-MEL-2 melanoma): > 100 µM

CCCN=C1CC(C)Nc2ccccc2N1 (configuration not stated)
TGI (U251 CNS): > 100 µM
TGI (HOP-62 NSCLC): > 100 µM
TGI (NCI-H522 lung): > 100 µM
TGI (SK-MEL-2 melanoma): > 100 µM

CCCCc1c(O)nc(Nc2nc3ccccc3[nH]2)[nH]c1=O
TGI (U251 CNS): > 100 µM
TGI (HOP-62 NSCLC): > 100 µM
TGI (NCI-H522 lung): > 100 µM
TGI (SK-MEL-2 melanoma): > 100 µM

O=c1[nH]cnc2c(C3OC(CO)C(O)C3O)c[nH]c12 (configuration not stated)
TGI (U251 CNS): > 100 µM
TGI (HOP-62 NSCLC): > 100 µM
TGI (NCI-H522 lung): > 100 µM

CCOc1ccc(N/C(=C(/C(Cl)=C(/Cl)NCCN)[N+](=O)[O-])n2nnc3ccccc32)cc1
TGI (U251 CNS): > 100 µM
TGI (HOP-62 NSCLC): > 100 µM
TGI (SK-MEL-2 melanoma): > 100 µM

Cc1cc2c(c(C(=O)NCCC(=O)O)c1)Oc1c(cc(C)cc1C(=O)NCCC(=O)O)S2
TGI (U251 CNS): > 100 µM
TGI (HOP-62 NSCLC): > 100 µM
TGI (NCI-H522 lung): > 100 µM
TGI (SK-MEL-2 melanoma): > 100 µM

O=c1c2c3ccccc3[nH]c2c2cccc3c2n1CCC3
TGI (U251 CNS): > 100 µM
TGI (HOP-62 NSCLC): > 100 µM

CC(C)(C)OC(=O)NC(C)(C)C(=O)NCCC(=O)O
TGI (U251 CNS): > 100 µM
TGI (HOP-62 NSCLC): > 100 µM
TGI (NCI-H522 lung): > 100 µM
TGI (SK-MEL-2 melanoma): > 100 µM

COc1ccc(/C(=C/n2ccnc2)C(=O)c2ccc(OC)c(OC)c2)cc1
TGI (LXFL 529 NSCLC): > 100 µM
TGI (U251 CNS): > 100 µM
TGI (HOP-62 NSCLC): > 100 µM
TGI (XF 498 CNS): > 100 µM
TGI (DLD-1 colon): > 100 µM
TGI (NCI-H522 lung): > 100 µM
TGI (KM20L2 colon): > 100 µM
TGI (SK-MEL-2 melanoma): > 100 µM
TGI (DMS 114 small cell lung): > 100 µM
TGI (DMS 273 small cell lung): > 100 µM
TGI (M19-MEL melanoma): > 100 µM

Cc1c(/C=N\NC(=S)N2CCN(C(=S)N/N=C\c3c(C)n(C)n(-c4ccccc4)c3=O)CC2)c(=O)n(-c2ccccc2)n1C
TGI (U251 CNS): > 100 µM
TGI (HOP-62 NSCLC): > 100 µM
TGI (NCI-H522 lung): > 100 µM
TGI (SK-MEL-2 melanoma): 92.7 µM

CC1C(c2cc(C(C)(C)C)c(O)c(C(C)(C)C)c2)c2cc3c(cc2OC1N1CCOCC1)OCO3 (configuration not stated)
TGI (HOP-62 NSCLC): 33.4 µM
TGI (NCI-H522 lung): > 100 µM
TGI (SK-MEL-2 melanoma): 67.3 µM

COc1ccc(N2C(=O)C3c4[nH]c5ccc([N+](=O)[O-])cc5c4C4CCC(C(C)(C)C)CC4C3C2=O)cc1 (configuration not stated)
TGI (U251 CNS): 90.7 µM
TGI (HOP-62 NSCLC): 78.8 µM
TGI (NCI-H522 lung): > 100 µM
TGI (SK-MEL-2 melanoma): > 100 µM

CCCCCCCCCC[C@@H](O)[C@H]1CC[C@H]([C@H]2CC[C@H]([C@H](O)CCCCCCCCCC[C@@H]3CC(CC(C)=O)C(=O)O3)O2)O1 (some centres not stated)
GI50 (U251 CNS): 7.12 µM
TGI (U251 CNS): > 50 µM
TGI (HOP-62 NSCLC): > 50 µM
TGI (NCI-H522 lung): > 50 µM
GI50 (SK-MEL-2 melanoma): 4.06 µM
TGI (SK-MEL-2 melanoma): > 50 µM

CCOP(=O)(OCC)[C@H](O)c1ccsc1
TGI (U251 CNS): > 100 µM
TGI (HOP-62 NSCLC): > 100 µM
TGI (NCI-H522 lung): > 100 µM
TGI (SK-MEL-2 melanoma): > 100 µM

CC(C)C(Sc1nc(-c2ccccc2)c(-c2ccccc2)[nH]1)C(=O)NNC(=S)Nc1ccccc1 (configuration not stated)
TGI (LXFL 529 NSCLC): 33.8 µM
TGI (SNB-78 CNS): 79.6 µM
TGI (U251 CNS): 30 µM
TGI (HOP-62 NSCLC): 39.8 µM
TGI (XF 498 CNS): 32.7 µM
TGI (DLD-1 colon): 52 µM
TGI (NCI-H522 lung): 21.5 µM
TGI (KM20L2 colon): 37.6 µM
TGI (SK-MEL-2 melanoma): 36.6 µM
TGI (DMS 273 small cell lung): 34.8 µM
TGI (M19-MEL melanoma): 33.4 µM
